In brackets after ≈: the same amount, converted by molar mass.
Tests used:
K562 = assay: Cytotoxicity against human K562 cells after 72 hrs; format: functional, cell-based; details: K562, 72 h
Mycobacterium sp. = assay: Antimicrobial activity against Mycobacterium sp. SG 987 by agar plate diffusion assay; format: functional
Enterococcus faecium = assay: Antimicrobial activity against Enterococcus faecium 1528 by agar plate diffusion assay; format: functional
Bacillus subtilis = assay: Antimicrobial activity against Bacillus subtilis ATCC 6633 by agar plate diffusion assay; format: functional
Staphylococcus aureus = assay: Antimicrobial activity against Staphylococcus aureus 134/94 by agar plate diffusion assay; format: functional
HeLa = assay: Cytotoxicity against human HeLa cells by methylene blue staining; format: functional, cell-based
L929 = assay: Cytotoxicity against mouse L929 cells after 72 hrs by methylene blue staining; format: cell-based; details: L929, 72 h
Candida albicans = assay: Antimicrobial activity against Candida albicans by agar plate diffusion assay; format: functional

CC[C@@H]1[C@@H](C)O[C@@](OC)([C@@H](C)[C@H](O)[C@H](C)[C@H]2OC(=O)/C=C/C=C/[C@H](C)[C@@H]([C@@H](C)[C@@H](O)[C@H](C)[C@@]3(OC)C[C@@H](O[C@H]4C[C@H](O)[C@H](O)[C@H](C)O4)[C@H](CC)[C@@H](C)O3)OC(=O)/C=C/C=C/[C@@H]2C)C[C@H]1O[C@H]1C[C@H](O)[C@H](O)[C@H](C)O1
IC50 (K562): 1.3 µg/mL (≈ 1.23 µM) | inhibition zone (IZ) (Mycobacterium sp.): 15 mm | inhibition zone (IZ) (Enterococcus faecium): 17 mm | inhibition zone (IZ) (Bacillus subtilis): 23 mm | inhibition zone (IZ) (Staphylococcus aureus): 13 mm | IC50 (HeLa): 2.2 µg/mL (≈ 2.09 µM) | IC50 (L929): 2.4 µg/mL (≈ 2.28 µM) | inhibition zone (IZ) (Candida albicans): 0 mm
